Experiments:
[1] = rats, liquid diet ad libitum; effect appeared after first week; cited from earlier work
[2] = flavored liquid food, ad libitum; cited from earlier work
[3] = Source text: To find out, a few days later I began drinking much more water than usual.
I was already measuring my weight regularly. I used three scales, to ensure that any weight change was not due to a changing scale.

For `O=C1NS(=O)(=O)c2ccccc21` [saccharin], the “weight gain versus same food without saccharin” value [1] is given as “gained more weight”.

For `CC(=O)OC[C@H]1O[C@@](COC(C)=O)(O[C@H]2O[C@H](COC(C)=O)[C@@H](OC(C)=O)[C@H](OC(C)=O)[C@H]2OC(C)=O)[C@@H](OC(C)=O)[C@@H]1OC(C)=O` [sucrose octaacetate], the “weight gain versus rats eating unflavored solid food” value [2] is given as “gained more weight”.

With `O` [water] the weight rise ([3]; after reducing water intake from 5 to 3 liters/day) was “about 0.7 kg” and the weight lost ([3]; water intake raised to 5 liters/day, over two weeks before weight stabilized) was “about 2.8 kg”.

Source: patent US9456619B1, “Control of caloric intake” (priority 2000, dated 2016)
